Test results published in article PMC4718634, “Murine GPRC6A Mediates Cellular Responses to L-Amino Acids, but Not Osteocalcin Variants” (PLoS ONE, 2016).
“Also recorded” adds a separate entry of the source.

Assays:
[1] = tested on: un-induced FlpIn-TREx-HEK293-mGPRC6A cells; test: Label-free cell impedance, un-induced FlpIn-TREx-HEK293-mGPRC6A cells; type: cell-based; conditions: Fig 4
Procedure: 2.5 x 10^7 FlpIn-TREx-HEK293-mGPRC6A cells were seeded in a T175 flask and incubated overnight at 37°C in 5% CO2. Cells were then transfected with 35 μg of plasmid DNA (GαqG66D) with Lipofectamine LTX according to manufacturer's instructions, then incubated for 24h at 37°C in 5% CO2. Prior to the experiment, a background reading for each E-plate 96 (Bio-Rad, CA, USA) was measured after addition of 100 μl DMEM + 10% FBS per well. Cells were recovered using Versene and seeded at a 10^5 cells/well density in 200 μl DMEM + 10% FBS (containing 1 μg/ml tetracycline where indicated). Cells were washed 2 x 2 h in HBSS buffer (pH 7.2) containing 20 mM HEPES, 1 mM CaCl2 and 0.1% BSA (w/v) in a total volume of 180 μl. Test compounds (20 μl at 10x final concentration) were added to the plate and cell impedance was monitored for 3 h. Cell index was normalised to the buffer response (minus the baseline response at zero time point).

mouse pancreatic islets = test: Insulin release from mouse pancreatic islets; type: cell-based; conditions: OCN 0.03–100 ng/ml; both glucose concentrations; 90 min; n = 2; S3 Fig B
Procedure: Islets were collagenase-isolated from mice (10 x C57Bl/6; 12–13 weeks; Charles River) and incubated overnight in RPMI (with 10% FBS (v/v), 10 mM HEPES, 100 U/ml penicillin, 100 μg/ml streptomycin, sodium pyruvate and 10 mM glucose) at 37°C in 5% CO2. Islets were seeded into a 96-well plate (4 / well) in Kreb’s buffer containing 2.8 mM glucose and washed twice with the same buffer. 200 μl test drugs were added in Kreb’s buffer with the required concentration of glucose and incubated at 37°C in 5% CO2 for 90 min. The plate was centrifuged for 10 s at 200 g, supernatant recovered and insulin levels detected as described above. This protocol was approved by the IDRS (Institut de Recherches Servier) Institutional Animal Care and Use Committee.
Concentration-response data were analysed using a three or four parameter logistic function (Motulsky & Christopoulos, 2004) to generate estimates of agonist potency (LogEC50). Data for all HEK293 assays represent the mean ± SEM of at least three independent experiments (except cell impedance, n = 2). For GLP-1 release, the data represent mean ± SEM of three to five independent experiments (except for OCN, wash; n = 2). For insulin release assays, data represent the mean ± SEM of three independent experiments (except for islet studies; n = 2). Insulin release data were normalised to the response to vehicle in either low or high [glucose]. Statistical analysis for GLP-1 release data were performed by one-way ANOVA, followed by Sidak’s multiple comparisons test (treating wash / no wash datasets separately). Statistical analyses for insulin release data were performed by two-way ANOVA (with [glucose] and drug treatment as group variables), followed by Sidak’s multiple comparisons test. Where only high [glucose] groups were evaluated, statistical analysis was by one-way ANOVA followed by Sidak’s multiple comparisons test.

GPRC6A = conditions: cited from earlier work
Text: (§1) Additional interest in GPRC6A has emerged due to several studies reporting that it mediates the metabolic and endocrine effects of the de-carboxylated form of the osteoblast-derived peptide, osteocalcin (OCN).

immortalised cell lines = conditions: blocked by siRNA targeting Gprc6a; ref [12], [22]; cited from earlier work
Text: as §1

mice = conditions: injected into the peritoneal cavity; WT vs Gprc6a KO mice; ref [12]; cited from earlier work
Text: as §1

Compound	cell impedance (cell index) response [1]	insulin secretion, OCN (mouse pancreatic islets)	cAMP accumulation (GPRC6A; GPRC6A-expressing cell lines or mouse pancreatic islets, ref [8], [30])	OCN concentration stimulating cAMP accumulation (GPRC6A; HEK293 transfected with GPRC6A, species not stated for receptor or peptide, ref [8]) [ng/mL]	OCN concentration promoting ERK1/2 phosphorylation (GPRC6A; approx., HEK293 cells expressing GPRC6A, species not stated, ref [10], [12]) [ng/mL]	GLP-1 release (immortalised cell lines)	circulating insulin levels (mice)
NCCC[C@H](N)C(=O)O [L-ornithine]	only mGPRC6A-expressing cells responded to L-ornithine; also recorded: increases cellular impedance only in tetracycline-induced cells	–	–	–	–	–	–
OCN: osteoblast-derived peptide, osteocalcin; variant not specified at the place (YLYQWLGAPVPYPDPLEPRREVCELNPDCDELADHIGFQEAYRRFYGPV; UniProt P02818 52-100, looked up)	–	no effect on insulin release; also recorded: failed to induce GSIS	cAMP accumulation	3	40 to 80	OCN-mediated insulin and glucagon-like peptide (GLP)-1 release	increases circulating insulin levels in WT but not in Gprc6a KO mice
